Measurements from ChEMBL document CHEMBL4725267, “Design and synthesis of potent inhibitors of bc complex based on natural product neopeltolide” (Bioorg Med Chem Lett, 2020).

Key:
Sus scrofa [1] = species on record: Sus scrofa; assay: (§1) Inhibition of porcine heart Succinate-cytochrome c reductase complex 2 by measuring decrease in DCIP at 10 uM relative to control; assay type: tissue-based
[2] = Inhibition of porcine heart Succinate-cytochrome c reductase complex 2 by measuring decrease in DCIP; assay type: tissue-based, Sus scrofa
[3] = Inhibition of bovine heart mitochondrial cytochrome bc1 complex; assay type: mitochondria, Bos taurus, Mitochondria
Sus scrofa [4] = species on record: Sus scrofa; assay: Inhibition of porcine heart Succinate-cytochrome c reductase complex 2 by measuring decrease in DCIP at 1 uM relative to control; assay type: tissue-based
[5] = as §1; assay type: tissue-based, Sus scrofa

SMILES	inhibition (Sus scrofa [1])	other results
COC(=O)NC/C=C\c1nc(C(=O)OCc2cccc3[nH]cc(Cl)c23)co1	12%	
COC(=O)NC/C=C\c1nc(C(=O)OCc2cccc3c2c(Cl)cn3Cc2ccccc2F)co1	50%	
COC(=O)NC/C=C\c1nc(C(=O)OCc2cccc3c2c(Cl)cn3Cc2ccccc2)co1	41%	
C=CCn1cc(Cl)c2c(COC(=O)c3coc(/C=C\CNC(=O)OC)n3)cccc21	21%	
COC(=O)NC/C=C\c1nc(C(=O)OCc2cccc3c2c(Cl)cn3Cc2ccc(C)cc2)co1	11%	
COC(=O)NC/C=C\c1nc(C(=O)OCc2cccc3c2c(Cl)cn3Cc2ccccc2C)co1	47%	
COC(=O)NC/C=C\c1nc(C(=O)OCc2cccc3c2c(Cl)cn3Cc2ccc(F)cc2)co1	46%	
COC(=O)NC/C=C\c1nc(C(=O)OCc2cccc3c2c(Cl)cn3Cc2ccccc2Cl)co1	31%	
COC(=O)NC/C=C\c1nc(C(=O)Nc2cccc3c2ccn3Cc2ccc(F)cc2)co1		IC50 [2]: 1.46 µM
C#CCn1cc(Cl)c2c(COC(=O)c3coc(/C=C\CNC(=O)OC)n3)cccc21	25%	
COC(=O)NC/C=C\c1nc(C(=O)OCc2cccc3c2c(Cl)cn3Cc2cccc(Br)c2)co1	34%	
CCC[C@H]1C[C@@H](OC)C[C@H](C)C[C@@H]2C[C@@H](OC(=O)/C=C\CCc3coc(/C=C\CNC(=O)OC)n3)C[C@H](CC(=O)O1)O2		IC50 [3]: 0.002 µM
COC(=O)NC/C=C\c1nc(C(=O)OCc2cccc3c2c(Cl)cn3Cc2ccc(Cl)cc2)co1	31%	
COC(=O)NC/C=C\c1nc(C(=O)Nc2cccc3c2ccn3Cc2ccc(C)cc2)co1		inhibition (Sus scrofa [4]): 55%
COC(=O)NC/C=C\c1nc(C(=O)OCc2cccc3c2c(Cl)cn3Cc2cc(C)cc(C)c2)co1	27%	
COC(=O)NC/C=C\c1nc(C(=O)OCc2cccc3c2c(Cl)cn3Cc2cccc(F)c2)co1	32%	
COC(=O)NC/C=C\c1nc(C(=O)OCc2cccc3c2c(Cl)cn3Cc2cccc(C)c2)co1	49%	
CO/C=C(/C(=O)OC)c1ccccc1Oc1cc(Oc2ccccc2C#N)ncn1 [AZOXYSTROBIN]		IC50 [5]: 0.7 µM
COC(=O)NC/C=C\c1nc(C(=O)Nc2cccc3c2ccn3Cc2cccc(F)c2)co1		IC50 [2]: 1.75 µM
CCn1cc(Cl)c2c(COC(=O)c3coc(/C=C\CNC(=O)OC)n3)cccc21	< 10%	
COC(=O)NC/C=C\c1nc(C(=O)OCc2cccc3c2c(Cl)cn3Cc2ccc(Br)cc2)co1	14%	
COC(=O)NC/C=C\c1nc(C(=O)Nc2cccc3c2ccn3Cc2ccccc2F)co1		IC50 [2]: 1.34 µM
CCCn1cc(Cl)c2c(COC(=O)c3coc(/C=C\CNC(=O)OC)n3)cccc21	24%	
COC(=O)NC/C=C\c1nc(C(=O)OCc2cccc3c2c(Cl)cn3Cc2cccc(Cl)c2)co1	23%	
COC(=O)NC/C=C\c1nc(C(=O)Nc2cccc3c2ccn3Cc2cccc(C)c2)co1		IC50 [2]: 0.7 µM
COC(=O)NC/C=C\c1nc(C(=O)Nc2cccc3c2ccn3Cc2ccccc2C)co1		inhibition (Sus scrofa [4]): 65%
COC(=O)NC/C=C\c1nc(C(=O)OCc2cccc3c2c(Cl)cn3Cc2ccccc2Br)co1	33%	
COC(=O)NC/C=C\c1nc(C(=O)OCc2cccc3c2c(Cl)cn3Cc2ccc(F)cc2F)co1	46%	
COC(=O)NC/C=C\c1nc(C(=O)OCc2cccc3c2c(Cl)cn3C)co1	< 10%	
